Data on 27 molecules can be found in patent publication US20050209278A1, “Piperidinyl- and piperazinyl-sulfonylmethyl hydroxamic acids and their use as protease inhibitors” (priority 2002, published 2005).

The experiment addresses T1, MMP-14 (Homo sapiens, UniProt P50281).
T1 construct: The catalytic domain enzyme was expressed in E. coli inclusion bodies, solubilized in urea; made in house
Nature of the experiment: In vitro MMP inhibition, Ki determination (fluorogenic substrate II). The class given is biochemical. The settings on record: value not in parenthesis; read-out: MMP-14 Ki. As for the experimental part:
Several hydroxamic acids and salts thereof were analyzed in in vitro assays to determine their ability to inhibit the MMP cleavage of peptide substrates. […] and IC50 constants were calculated from the assayed hydroxamic acid-MMP interactions.
Human recombinant MMP-1, MMP-2, MMP-9, MMP-13, and MMP-14 were used in this assay. All enzymes were prepared in Assignee's laboratories following usual laboratory procedures. Protocols for the preparation and use of these enzymes are available in the scientific literature. See, e.g., Enzyme Nomenclature (Academic Press, San Diego, Calif., 1992) (and the citations therein). See also, Freije et al., “Molecular cloning and expression of collagenase-3, a novel human matrix metalloproteinase produced by breast carcinomas,” J Biol. Chem., 269(24), 16766-16773 (1994).
The MMP-14 full length cDNA was provided by Dr. Gregory Goldberg of Washington University (St. Louis, Mo.). The catalytic domain enzyme was expressed in E. coli inclusion bodies, solubilized in urea, purified on a preparative […] reverse phase HPLC column, and then refolded in the presence of zinc acetate and purified for use.
All MMPs were activated using 4-aminophenylmercuric acetate (“APMA”, Sigma Chemical, St. Louis, Mo.) or trypsin. MMP-9 also was activated using human recombinant MMP-3 (purified in Assignee's laboratory following standard cloning and purification techniques).
Two fluorogenic, methoxycoumarin-containing polypeptide substrates were used in the MMP inhibition assays: [drawing 427] Here, “Dpa” is 3-(2,4-dinitrophenyl)-L-2,3-diaminopropionyl group, and “MCA” is 7-methoxycoumarin-4-yl acetyl. Substrate (I) was purchased from Baychem (Redwood City, Calif.), and substrate II was prepared Assignee's laboratory. Substrate I was used in the IC50 determination assays, while substrate II was used in the Ki determination assays. In the absence of MMP inhibitory activity, either substrate is cleaved at the Gly-Leu peptide bond. This cleavage separates the highly fluorogenic peptide from the 2,4-dinitrophenyl quencher, thus resulting in increase of fluorescent intensity.
The stock solutions of the assayed hydroxamic acids (or salts thereof) were prepared in 1% dimethyl sulfoxide (DMSO). These stock solutions were diluted in Buffer A (100 mM Tris-HCl, 100 mM NaCl, 10 mM CaCl2, 0.05% polyoxyethylene 23 lauryl ether, pH 7.5) to obtain solutions with different hydroxamic acid concentrations, i.e., assay solutions with different concentrations of the assayed MMP inhibitory compound. The experiment controls contained the same amount of Buffer A/DMSO as the assayed sample, but contained no hydroxamic acid (or salt thereof).
The assays from which the Ki determinations were made were performed as follows. The assayed hydroxamic acid samples were incubated in separate wells of untreated white polystyrene plates (Nunc Nalgene International, Rochester, N.Y.), and analyzed on a Tecan SpectraFlour Plus plate reader. The excitation wavelength was 330 nm, and the emission wavelength—420 nm. All samples (assayed hydroxamic acids and controls) were incubated in separate plate wells at room temperature for 1 hr in the presence of 4 μM of MMP substrate (II). In the absence of MMP inhibitory activity, substrate II was cleaved at the Gly-Leu bond resulting in an increase of relative fluorescence. Inhibition was observed as a reduced rate of this increase in relative fluorescence. The various hydroxamic acids were analyzed using a single low enzyme concentration with a single substrate concentration fixed at or below the Km. This protocol is a modification of method by Knight et al., FEBS Lett., 296(3), 263-266 (1992). Apparent inhibitory constants were determined by non-linear regression of reaction velocity as a function of inhibitor and enzyme concentration using Morrison's equation, as described by Kuzmic, Anal. Biochem. 286, 45-50 (2000).

pKi: −log10 of the molar value.

A word on the pKi: it is −log10 of the Ki, conventionally taken in molar units.

Consider `COCCN1CCC(C(=O)NO)(S(=O)(=O)N2CCN(c3ccc(OCCCC(F)(F)F)cc3F)CC2)CC1` [Example 102], for which the pKi is 5.15. Take `O=C(NO)C1(S(=O)(=O)N2CCN(c3ncc(Br)cn3)CC2)CCOCC1` [Example 103]: the pKi is 6.64.

Consider `O=C(NO)C1(S(=O)(=O)N2CCN(c3ncc(Br)cn3)CC2)CCOCC1` [Example 104], for which the pKi was 6.52. Regarding `O=C(NO)C1(S(=O)(=O)N2CCN(c3ncccn3)CC2)CCOCC1` [Example 106], the pKi is 5.12. Turning to `O=C(NO)C1(S(=O)(=O)N2CCN(c3ncccn3)CC2)CCOCC1` [Example 107], the pKi is 5.22. In the case of `COc1ccc(N2CCN(S(=O)(=O)C3(C(=O)NO)CCOCC3)CC2)nc1` [Example 108], the pKi was less than 5.00.

`COc1ccc(N2CCN(S(=O)(=O)C3(C(=O)NO)CCOCC3)CC2)nc1` [Example 109]: the pKi is less than 5.00. On to `CCCCCCCCCc1cnc(N2CCN(S(=O)(=O)C3(C(=O)NO)CCOCC3)CC2)nc1` [Example 110], for which the pKi is less than 5.00. On to `CCCCCCCCCc1cnc(N2CCN(S(=O)(=O)C3(C(=O)NO)CCOCC3)CC2)nc1` [Example 111], for which the pKi was less than 5.00. The result for `O=C(NO)C1(S(=O)(=O)N2CCN(c3ccc(OCCCC(F)(F)F)cc3)CC2)CCN(c2cnccn2)CC1` [Example 112] reads 5.93; that for `CCCCOc1ccc(N2CCN(S(=O)(=O)C3(C(=O)NO)CCN(C(=O)OCCF)CC3)CC2)cc1` [Example 113], 5.63; that for `CCc1ccc(N2CCN(S(=O)(=O)C3(C(=O)NO)CCOCC3)CC2)nc1` [Example 114], 7.01. Under `CCCCOc1ccc(N2CCN(S(=O)(=O)C3(C(=O)NO)CCN(C(=O)OCC(F)(F)F)CC3)CC2)cc1` [Example 115] stands less than 5.00.

As to `CC(C)(C)N1CCC(C(=O)NO)(S(=O)(=O)N2CCN(c3ccc(OCCCC(F)(F)F)cc3F)CC2)CC1` [Example 116], the pKi was 5.10. In the case of `O=C(NO)C1(S(=O)(=O)N2CCN(c3ccc(OCCCC(F)(F)F)cc3F)CC2)CCOCC1` [Example 117], the pKi was 5.24. Regarding `CCCCOc1ccc(N2CCN(S(=O)(=O)C3(C(=O)NO)CCN(C(=O)NCCOC)CC3)CC2)cc1` [Example 118], the pKi is 5.59. `COCCN1CCC(C(=O)NO)(S(=O)(=O)N2CCN(c3ccc(OCC(F)(F)F)cc3)CC2)CC1` [Example 119]: the pKi was 5.36.

In the case of `CCCCOc1ccc(N2CCN(S(=O)(=O)C3(C(=O)NO)CCN(c4ccc(O)cc4)CC3)CC2)cc1` [Example 121], the pKi was less than 5.00. Turning to `O=C(c1cccnc1)N1CCC(C(=O)NO)(S(=O)(=O)N2CCN(c3ccc(OCCCC(F)(F)F)cc3)CC2)CC1` [Example 122], the pKi is 5.51. `CCCCOc1ccc(N2CCN(S(=O)(=O)C3(C(=O)NO)CCN(C(=S)N(C)C)CC3)CC2)cc1` [Example 123]: the pKi was 5.25. Consider `CCCCOc1ccc(N2CCN(S(=O)(=O)C3(C(=O)NO)CCN(C(=O)N4CCOCC4)CC3)CC2)cc1` [Example 124], for which the pKi is less than 5.00.

As to `CCCCOc1ccc(N2CCN(S(=O)(=O)C3(C(=O)NO)CCN(c4ccc(C)cn4)CC3)CC2)cc1` [Example 125], the pKi was 5.56. For the molecule `CCCCOc1ccc(N2CCN(S(=O)(=O)C3(C(=O)NO)CCN4CCCC4C3)CC2)cc1F` (stereo not drawn) [Example 126], the pKi is less than 5.00. Turning to `CCCCOc1ccc(N2CCN(S(=O)(=O)C3(C(=O)NO)CCN(C(=O)c4cc5ccccc5o4)CC3)CC2)cc1` [Example 127], the pKi is less than 5.00.

With `CC(C)CCOc1ccc(N2CCN(S(=O)(=O)C3(C(=O)NO)CCN(C4CC4)CC3)CC2)cc1` [Example 128], the pKi was 5.27. Take `CCCCOc1ccc(N2CCN(S(=O)(=O)C3(C(=O)NO)CCN(c4ccc(OCCOC)nn4)CC3)CC2)cc1` [Example 129]: the pKi was 5.89.

`CCCCOc1ccc(N2CCN(S(=O)(=O)C3(C(=O)NO)CCN(c4nccc(C(F)(F)F)n4)CC3)CC2)cc1` [Example 130]: the negative-log Ki (pKi) is less than 5.00.
